Reference: PubChem BioAssay AID248 (DTP/NCI, 2004)
Several values for one entry are separate records, joined by “and”; a condition that tells them apart may be missing. Identical values can stand only once. Inconclusive results and toxic doses are left out. Cut-off read from the data, not from the text of the source: active = T/C of 150% or more; inactive = T/C below 125%.

Test system: L1210 leukemia ip in BDF1 mice, survival T/C
Experiment: NCI In Vivo Anticancer Drug Screen. Data for tumor model L1210 Leukemia (intraperitoneal) in B6D2F1 (BDF1) mice
Conditions: endpoint: mean survival time, higher = longer survival
Procedure, shortened: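 Each compound was tested against a transplantable tumor grown in mice. The endpoint was survival, with treated animals benchmarked against vehicle controls as a simple ratio.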

[1] = dose: 100.0 mg/kg/injection, schedule: Q04DX002 (ip), vehicle: Klucel (hydroxypropylcellulose) (HPC)
[2] = dose: 200.0 mg/kg/injection, schedule: Q04DX002 (ip), vehicle: Klucel (hydroxypropylcellulose) (HPC)
[3] = dose: 400.0 mg/kg/injection, schedule: Q04DX002 (ip), vehicle: Klucel (hydroxypropylcellulose) (HPC)
[4] = dose: 100.0 mg/kg/injection, schedule: Q01DX001 (ip), vehicle: saline
[5] = dose: 200.0 mg/kg/injection, schedule: Q01DX001 (ip), vehicle: saline
[6] = dose: 400.0 mg/kg/injection, schedule: Q01DX001 (ip), vehicle: saline
[7] = dose: 50.0 mg/kg/injection, schedule: Q01DX009 (ip), vehicle: saline with Tween-80
[8] = dose: 100.0 mg/kg/injection, schedule: Q01DX009 (ip), vehicle: saline with Tween-80
[9] = dose: 200.0 mg/kg/injection, schedule: Q01DX009 (ip), vehicle: saline with Tween-80
[10] = dose: 100.0 mg/kg/injection, schedule: Q01DX009 (ip), vehicle: Klucel (hydroxypropylcellulose) (HPC)
[11] = dose: 100.0 mg/kg/injection, schedule: Q04DX003 (ip), vehicle: Klucel (hydroxypropylcellulose) (HPC)
[12] = dose: 200.0 mg/kg/injection, schedule: Q01DX009 (ip), vehicle: Klucel (hydroxypropylcellulose) (HPC)
[13] = dose: 200.0 mg/kg/injection, schedule: Q04DX003 (ip), vehicle: Klucel (hydroxypropylcellulose) (HPC)
[14] = dose: 400.0 mg/kg/injection, schedule: Q01DX009 (ip), vehicle: Klucel (hydroxypropylcellulose) (HPC)
[15] = dose: 400.0 mg/kg/injection, schedule: Q04DX003 (ip), vehicle: Klucel (hydroxypropylcellulose) (HPC)
[16] = dose: 100.0 mg/kg/injection, schedule: Q01DX001 (ip), vehicle: saline with Tween-80
[17] = dose: 200.0 mg/kg/injection, schedule: Q01DX001 (ip), vehicle: saline with Tween-80
[18] = dose: 400.0 mg/kg/injection, schedule: Q01DX009 (ip), vehicle: saline with Tween-80
[19] = dose: 100.0 mg/kg/injection, schedule: Q04DX002 (ip), vehicle: saline with Tween-80
[20] = dose: 200.0 mg/kg/injection, schedule: Q04DX002 (ip), vehicle: saline with Tween-80
[21] = dose: 400.0 mg/kg/injection, schedule: Q04DX002 (ip), vehicle: saline with Tween-80
[22] = dose: 25.0 mg/kg/injection, schedule: Q01DX009 (ip), vehicle: saline with Tween-80
[23] = dose: 100.0 mg/kg/injection, schedule: Q04DX003 (ip), vehicle: saline with Tween-80
[24] = dose: 200.0 mg/kg/injection, schedule: Q04DX003 (ip), vehicle: saline with Tween-80
[25] = dose: 100.0 mg/kg/injection, schedule: Q01DX009 (ip), vehicle: saline

Measured: T/C

CCOC(=O)CNc1cccc(F)c1C
inactive: [1] 104 % of control | [2] 104 % of control | [3] 115 % of control

CCCCCCCNC(C)(C)C(SS)c1ccc(Cl)cc1 (stereo unspecified)
inactive: dose: 100.0 mg/kg/injection, schedule: Q01DX009 (sc), vehicle: olive oil, sesame oil, peanut oil 102 % of control | dose: 200.0 mg/kg/injection, schedule: Q01DX009 (sc), vehicle: olive oil, sesame oil, peanut oil 100 % of control | dose: 400.0 mg/kg/injection, schedule: Q01DX009 (sc), vehicle: olive oil, sesame oil, peanut oil 101 % of control

COc1cc(C)c2c(OC)ccc(OC)c2n1
inactive: [4] 94 % of control | [5] 97 % of control | [6] 103 % of control

CCCCCCCCN1C(=O)c2ccccc2S1(=O)=O
inactive: dose: 222.0 mg/kg/injection, schedule: Q01DX Z (ip), vehicle: saline 105 % of control | dose: 333.0 mg/kg/injection, schedule: Q01DX Z (ip), vehicle: saline 100 % of control | dose: 500.0 mg/kg/injection, schedule: Q01DX Z (ip), vehicle: saline 113 % of control

O=C(O)c1cccc(-c2ccccc2)c1O
inactive: [4] 97 % of control | [5] 102 % of control

COc1ccc(C)cc1NC(=O)NC(=O)c1ccc(Cl)cc1
inactive: [7] 88 % of control | [8] 98 % of control | [9] 95 % of control

CC1S(=O)(=O)CCS1(=O)=O
inactive: dose: 75.0 mg/kg/injection, schedule: Q01DX001 (ip), vehicle: saline with Tween-80 100 % of control | dose: 150.0 mg/kg/injection, schedule: Q01DX001 (ip), vehicle: saline with Tween-80 100 % of control | dose: 300.0 mg/kg/injection, schedule: Q01DX001 (ip), vehicle: saline with Tween-80 103 % of control

ClC1C2C=CC1CC2 (stereo unspecified)
inactive: dose: 100.0 mg/kg/injection, schedule: Q01DX001 (ip), vehicle: carboxymethylcellulose (CMC) 90 % of control | dose: 200.0 mg/kg/injection, schedule: Q01DX001 (ip), vehicle: carboxymethylcellulose (CMC) 90 % of control | dose: 400.0 mg/kg/injection, schedule: Q01DX001 (ip), vehicle: carboxymethylcellulose (CMC) 93 % of control

CC(OC(=O)c1ccc([N+](=O)[O-])cc1)C(C)(C)C (stereo unspecified)
inactive: [1] 109 % of control | [2] 123 % of control | [3] 113 % of control

CCOC(=O)CC1=CCCCC1
inactive: [10] 103 % of control | [11] 102 % of control | [12] 107 % of control | [13] 96 % of control | [14] 98 % of control | [15] 86 % of control

Cc1ccc(S(=O)(=O)N2C(=O)CCC2C(=O)O)cc1 (stereo unspecified)
inactive: [16] 100 % of control | [8] 98 % of control | [17] 96 % of control | [9] 96 % of control | dose: 400.0 mg/kg/injection, schedule: Q01DX001 (ip), vehicle: saline with Tween-80 97 % of control | [18] 102 % of control

CC(C)CCCC(C)C1CCC2C3CCC4CN(N=O)CCC4C3CCC12C (stereo unspecified)
inactive: dose: 100.0 mg/kg/injection, schedule: Q01DX001 (sc), vehicle: steriod suspending solution 102 % of control | dose: 177.6 mg/kg/injection, schedule: Q01DX001 (sc), vehicle: steriod suspending solution 95 % of control | dose: 200.0 mg/kg/injection, schedule: Q01DX001 (sc), vehicle: steriod suspending solution 102 % of control | dose: 266.8 mg/kg/injection, schedule: Q01DX001 (sc), vehicle: steriod suspending solution 98 % of control | dose: 600.0 mg/kg/injection, schedule: Q01DX001 (sc), vehicle: steriod suspending solution 98 % of control

C[N+](C)(C)CCC[N+]1(C)CC2C3CCCCC3=C3CCCCC3C2C1 (stereo unspecified)
inactive: dose: 5.0 mg/kg/injection, schedule: Q01DX001 (ip), vehicle: saline 95 % of control | dose: 10.0 mg/kg/injection, schedule: Q01DX001 (ip), vehicle: saline 98 % of control | dose: 20.0 mg/kg/injection, schedule: Q01DX001 (ip), vehicle: saline 101 % of control

C[CH2][Ge]([CH2]C)[CH2]C.C[CH2][Ge]([CH2]C)[CH2]C.C[CH2][Ge]([CH2]C)[O][Ge]([CH2]C)[CH2]C
inactive: [19] 106 % of control | [20] 106 % of control | [21] 116 % of control

Cc1cc(OC(=O)Nc2cccc(Cl)c2C)ccc1[N+](=O)[O-]
inactive: [22] 104 % of control and 111 % of control | [7] 97 % of control and 103 % of control | [19] 100 % of control and 107 % of control | [23] 105 % of control | [9] 89 % of control | [20] 101 % of control and 104 % of control | [24] 100 % of control | [21] 93 % of control

Brc1cscc1-c1cccc2ccccc12
inactive: [8] 86 % of control | [9] 86 % of control

COc1ccc(N=Nc2ccccc2)cc1
inactive: [11] 95 % of control | [13] 94 % of control | [15] 94 % of control

Cc1ccc(NC(=O)Oc2ccc(-c3ccccc3)cc2Br)c(Br)c1
inactive: [10] 93 % of control | [12] 94 % of control | [14] 91 % of control

CCCCC(=O)N1C(=O)/C(=C\N(C)C)c2cc(C=O)ccc21
inactive: dose: 100.0 mg/kg/injection, schedule: Q01DX001 (ip), vehicle: Klucel (hydroxypropylcellulose) (HPC) 90 % of control | dose: 200.0 mg/kg/injection, schedule: Q01DX001 (ip), vehicle: Klucel (hydroxypropylcellulose) (HPC) 90 % of control | dose: 400.0 mg/kg/injection, schedule: Q01DX001 (ip), vehicle: Klucel (hydroxypropylcellulose) (HPC) 93 % of control

CC(/C=C/c1ccco1)=N\O
inactive: dose: 50.0 mg/kg/injection, schedule: Q01DX009 (ip), vehicle: other 105 % of control

CC(=O)OS(=O)(=O)c1ccc(C)cc1
inactive: [25] 98 % of control | dose: 100.0 mg/kg/injection, schedule: Q04DX003 (ip), vehicle: saline 94 % of control | dose: 200.0 mg/kg/injection, schedule: Q01DX009 (ip), vehicle: saline 90 % of control | dose: 200.0 mg/kg/injection, schedule: Q04DX003 (ip), vehicle: saline 92 % of control | dose: 400.0 mg/kg/injection, schedule: Q04DX003 (ip), vehicle: saline 89 % of control

O=C1c2[nH]c3ccccc3c2CC2CC12 (stereo unspecified)
inactive: dose: 75.0 mg/kg/injection, schedule: Q01DX001 (ip), vehicle: saline 96 % of control | dose: 150.0 mg/kg/injection, schedule: Q01DX001 (ip), vehicle: saline 104 % of control | dose: 300.0 mg/kg/injection, schedule: Q01DX001 (ip), vehicle: saline 101 % of control

CC(=O)NC(C(=O)O)(C(=O)O)C(C)c1c[nH]c2ccccc12 (stereo unspecified)
inactive: [23] 95 % of control | [24] 90 % of control | dose: 400.0 mg/kg/injection, schedule: Q04DX003 (ip), vehicle: saline with Tween-80 95 % of control

O=C1C(NCc2c(O)ccc3ccccc23)CON1C(c1ccccc1)(c1ccccc1)c1ccccc1 (stereo unspecified)
inactive: dose: 75.0 mg/kg/injection, schedule: Q04DX003 (ip), vehicle: saline 89 % of control | dose: 300.0 mg/kg/injection, schedule: Q04DX003 (ip), vehicle: saline 91 % of control

CN(C)c1ccc(Cc2ccc(N(C)C)cc2)cc1
inactive: [8] 96 % of control | [9] 94 % of control | [18] 86 % of control

C=CCCCCCCCC/C=N\NC(=O)c1ccc[n+](C)c1
inactive: dose: 50.0 mg/kg/injection, schedule: Q01DX009 (ip), vehicle: saline 106 % of control | [25] 100 % of control

Cc1ccc2[nH]c(=S)[nH]c2c1
inactive: [16] 101 % of control | [17] 106 % of control

CC(=O)NC/C(C)=N/Nc1ccc([N+](=O)[O-])cc1[N+](=O)[O-]
inactive: [22] 91 % of control | [7] 93 % of control | [8] 102 % of control | [23] 88 % of control

CONCC(=O)c1ccc(SC)cc1
inactive: [4] 106 % of control | [5] 97 % of control | [6] 100 % of control
